In patent publication US11542266B1, “Substituted piperidines as BTK inhibitors” (HAISCO PHARMACEUTICALS PTE. LTD., priority 2019, dated 2023):

Key:
BTK protein = BTK protein (Mus musculus (Mouse), UniProt P35991); assay: Detection of BTK protein degradation in spleen of mice; format: in vivo; details: po, 72 h, female ICR mice, 3 consecutive days of intragastric administration, read-out: DD50 value of compounds on BTK protein degradation in spleen of mice
Protocol: Female ICR mice, 6-8 weeks old, were purchased from BEIJING VITAL RIVER LABORATORY ANIMAL TECHNOLOGY CO., LTD, and the experiment was started after 3 days of adaptation. After 3 consecutive days of intragastric administration of different doses of the compound, the spleen of mice was taken, the spleen cells were collected, and RIPA lysis buffer (Beyotime, Cat. P0013B) was added. The cells were lysed on ice for 15 minutes, and centrifuged at 12000 rpm at 4° C. for 10 minutes. The protein sample of the supernatant was collected, and the protein was quantified by using the BCA kit (Beyotime, Cat. P0009), and then the protein was diluted to 0.25 mg/mL. The expressions of BTK (CST, Cat. 8547S) and the internal reference β-actin (CST, Cat. 3700S) were detected using a fully automated western blot quantitative analyzer (Proteinsimple). The expression level of BTK relative to the internal reference was calculated using Compass software, and the DD50 value was calculated using Origen9.2 software according to formula (4). Specifically, the BTKadministration denoted the expression level of BTK in administration groups at different doses, and the BTKvehicle denoted the expression level of BTK in the vehicle control group. BTK %=BTKadministration/BTKvehicle×100 formula (4)

Mino cells = assay: Inhibition of cell proliferation, Mino cells (Cell Viability Assay, 72 h); format: cell-based, human; details: Homo sapiens
In short: (§1)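 RPMI1640 + 10% FBS cultures seeded at 20000/well (SU-DHL-4) or 5000/well (Mino, SU-DHL-6), exposed to compound dilutions in triplicate for 72 h at 37 °C, 5% CO2, DMSO vehicle control. Viability read by luminescent reagent; IC50 from dose-response and Max inhi. % = (1 − T72 treated/T72 vehicle)×100 at top concentration.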

SU-DHL-4 cells = assay: Inhibition of cell proliferation, SU-DHL-4 cells (Cell Viability Assay, 72 h); format: cell-based, human; details: Homo sapiens
In short: as §1

SU-DHL-6 cells = assay: Inhibition of cell proliferation, SU-DHL-6 cells (Cell Viability Assay, 72 h); format: cell-based; details: Homo sapiens
Protocol: SU-DHL-4, Mino, and SU-DHL-6 cells, in the culture medium of RPMI1640+10% FBS, were cultured in an incubator at 37° C. under 5% CO2. Cells were plated in a 96-well plate. Specifically, SU-DHL-4 cells were at 20000/well, Mino and SU-DHL-6 cells were at 5000/well, with 90 μL/well. 10 μL of the compounds at different concentrations were added to each well. There were 3 replicate wells for each concentration, and the last column, added with DMSO, was used as a vehicle control group. The cultures were continued for 72 hours at 37° C. under 5% CO2. After 72 hours, 100 μL of detection reagent (Cell Viability Assay, Promega, G7573) was added to each well, and the cultures were uniformly mixed for 2 minutes, and incubated at room temperature for 10 minutes. The fluorescence signal value was measured with a microplate reader (PHERAstar FSX). The IC50 value of the compound on cell proliferation inhibition was calculated using Origin 9.2 software, and the inhibition rate at the highest concentration of the compound (Max inhi. %) was calculated according to formula (1). Max inhi. %=(1-T72 administration/T72 vehicle)×100 Formula (1).

OCI-LY10 cells = assay: Inhibition of cell proliferation, OCI-LY10 cells (Cell Viability Assay, 72 h); format: cell-based; details: Homo sapiens
Protocol: (§2) OCI-LY10 and TMD-8 cells, in the culture medium of RPMI1640+10% FBS, were cultured in an incubator at 37° C. under 5% CO2. Cells were plated in a 96-well plate. Specifically, OCI-LY10 cells were at 10000/well, and TMD-8 cells were at 8000/well, with 90 μL/well. These cells were cultured at 37° C. under 5% CO2 overnight. On the next day, 10 μL of the compounds at different concentrations were added to each well. There were 3 replicate wells for each concentration, and the last column, added with DMSO, was used as a vehicle control group. The cultures were continued for 72 hours at 37° C. under 5% CO2. After 72 hours, 50 μL of detection reagent (Cell Viability Assay, Promega, G7573) was added to each well, and the cultures were uniformly mixed for 2 minutes, and incubated at room temperature for 10 minutes. The fluorescence signal value was measured with an Envision2104 plate reader (PerkinElmer). The inhibition rate was calculated using formula (2), wherein RLUcompound was the readout of the drug treated group, RLUcontrol was the average value of the vehicle control group, and RLUblank was the average value of the cell-free wells. The IC50 value was calculated using GraphPad Prism software. IR (%)=(1−(RLUcompound-RLUblank)/(RLUcontrol-RLUblank))*100% formula (2)

TMD-8 cells = assay: Inhibition of cell proliferation, TMD-8 cells (Cell Viability Assay, 72 h); format: cell-based; details: Homo sapiens, TMD8
Protocol: as §2

[1] = Pharmacokinetic experiment in rats (i.g. vehicle 0.5% MC); format: in vivo; details: Sprague-Dawley (SD), rat, po; male SD rats, plasma, i.g. 20 mg/kg, vehicle 0.5% MC; read-out: AUC0-t
In short: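 Male SD rats (200–250 g, 6–8 weeks, n=6 per compound) were dosed once i.v. or intragastrically after a 12–14 h fast and fed 4 h post-dose. Orbital blood was drawn into EDTA-K2 tubes at 0–24 h (from 5 min i.v., from 15 min oral). Plasma was quantified by LC-MS/MS for PK parameters and bioavailability.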

[2] = Pharmacokinetic experiment in rats (i.g. vehicle DMSO/Solutol/PEG-400/SBE-β-CD); format: in vivo; details: Sprague-Dawley (SD), rat, plasma, po, male SD rats; for bioavailability: i.g. 20 mg/kg (DMSO/Solutol/PEG-400/SBE-β-CD) vs i.v. 5 mg/kg; for AUC(0-t): i.g. 20 mg/kg, vehicle 5% DMSO + 5% Solutol + 30% PEG-400 + 60% (20%SBE-β-CD)
Protocol: Objective: In this experiment, a single dose of each test compound was administered to SD rats intravenously and intragastrically, the concentrations of the test compound in plasma of rats were measured, and the pharmacokinetic characteristics and bioavailability of the test compound in rats were evaluated.
Experimental animals: Male SD rats, 200-250 g, 6-8 weeks old, 6 rats/compound. The experimental animals were purchased from CHENGDU DOSSY EXPERIMENTAL ANIMALS CO., LTD.
Experimental method: On the day of the experiment, 6 SD rats were randomly grouped according to their body weight. The animals were fasted with water available for 12 to 14 hours one day before the administration of a test compound, and were fed 4 hours after the administration.
Sampling: Before and after the administration, 0.1 mL of blood was taken from the orbit of the rats under isoflurane anesthesia, and placed in an EDTAK2 centrifuge tube. Centrifugation was carried out at 5000 rpm at 4° C. for 10 min and the plasma was collected.
Time points for plasma collection in G1 group: 0, 5 min, 15 min, 30 min, 1 h, 2 h, 4 h, 6 h, 8 h, and 24 h.
Time points for plasma collection in G2 group: 0, 15 min, 30 min, 1 h, 2 h, 4 h, 6 h, 8 h, and 24 h.
Before analysis and detection, all samples were stored at −80° C. The samples were analyzed quantitatively by LC-MS/MS.

BTK protein, sequence (P35991 whole entry): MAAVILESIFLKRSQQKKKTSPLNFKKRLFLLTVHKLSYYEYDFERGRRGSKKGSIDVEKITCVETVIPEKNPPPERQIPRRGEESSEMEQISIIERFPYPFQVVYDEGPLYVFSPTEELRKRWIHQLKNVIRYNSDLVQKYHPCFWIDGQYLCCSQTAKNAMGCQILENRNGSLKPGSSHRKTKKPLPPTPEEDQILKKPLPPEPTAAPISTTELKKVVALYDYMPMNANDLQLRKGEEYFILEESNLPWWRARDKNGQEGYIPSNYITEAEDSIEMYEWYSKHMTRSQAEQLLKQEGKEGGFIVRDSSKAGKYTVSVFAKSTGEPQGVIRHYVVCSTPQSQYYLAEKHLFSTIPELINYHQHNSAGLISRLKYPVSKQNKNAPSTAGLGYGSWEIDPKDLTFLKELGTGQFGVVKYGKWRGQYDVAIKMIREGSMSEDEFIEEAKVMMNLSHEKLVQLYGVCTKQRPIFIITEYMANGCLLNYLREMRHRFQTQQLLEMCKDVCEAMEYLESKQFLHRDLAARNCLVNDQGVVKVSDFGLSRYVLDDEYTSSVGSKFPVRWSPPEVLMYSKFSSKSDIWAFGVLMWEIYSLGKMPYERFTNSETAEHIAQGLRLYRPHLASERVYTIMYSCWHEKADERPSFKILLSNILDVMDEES

SMILES | ED50 (BTK protein) | IC50 (SU-DHL-4 cells) | IC50 (SU-DHL-6 cells) | IC50 (OCI-LY10 cells) | AUC(0-t) [1] | bioavailability [2] | AUC(0-t) [2] | IC50 (Mino cells) | IC50 (TMD-8 cells)
Nc1ncnc2c1c(-c1ccc(Oc3ccccc3)cc1)nn2C1CCN(C2CN(C3CN(c4ccc5c(c4)C(=O)N([C@@H]4CCC(=O)NC4=O)C5=O)C3)C2)CC1 [Compound 17-a, 5-[3-[3-[4-[4-amino-3-(4-phenoxyphenyl)pyrazolo[3,4-d]pyrimidin-1-yl]-1-piperidyl]azetidin-1-yl]azetidin-1-yl]-2-[(3R)-2,6-dioxo-3-piperidyl]isoindoline-1,3-dione] | 19.8 mg/kg | 481 nM | 524 nM |  |  |  |  | 8 nM | 
Nc1ncnc2c1c(-c1ccc(Oc3ccccc3)cc1)nn2C1CCN(C2CN(C3CN(c4ccc5c(c4)C(=O)N([C@H]4CCC(=O)NC4=O)C5=O)C3)C2)CC1 [Compound 17-b, 5-[3-[3-[4-[4-amino-3-(4-phenoxyphenyl)pyrazolo[3,4-d]pyrimidin-1-yl]-1-piperidyl]azetidin-1-yl]azetidin-1-yl]-2-[(3S)-2,6-dioxo-3-piperidyl]isoindoline-1,3-dione] | 2.2 mg/kg | 460 nM | 662 nM |  |  |  |  | 7.2 nM | 
Nc1ncnc2c1c(-c1ccc(Oc3ccccc3)cc1)nn2[C@@H]1CCN(C2CCN(C3CN(c4ccc5c(c4)C(=O)N(C4CCC(=O)NC4=O)C5=O)C3)CC2)C[C@H]1F (stereo partly drawn) [Compound 40, 5-(3-((3R,4R)-4-(4-amino-3-(4-phenoxyphenyl)-1H-pyrazolo[3,4-d]pyrimidin-1-yl)-3-fluoro-[1,4′-bipiperidin]-1′-yl)azetidin-1-yl)-2-(2,6-dioxopiperidin-3-yl)isoindoline-1,3-dione] | 2.1 mg/kg | 74 nM | 54 nM | 3 nM |  | 17.4 ± 4% | 5420 ± 1260 ng·h/mL | 7.3 nM | 12 nM
Nc1ncnc2c1c(-c1ccc(Oc3ccccc3)cc1)nn2[C@H]1CCN(C2CCN(C3CN(c4ccc5c(c4)C(=O)N(C4CCC(=O)NC4=O)C5=O)C3)CC2)C[C@H]1F (stereo partly drawn) [Compound 42, 5-(3-((3R,4S)-4-(4-amino-3-(4-phenoxyphenyl)-1H-pyrazolo[3,4-d]pyrimidin-1-yl)-3-fluoro-[1,4′-bipiperidin]-1′-yl)azetidin-1-yl)-2-(2,6-dioxopiperidin-3-yl)isoindoline-1,3-dione] | 1.9 mg/kg | 382 nM | 177 nM | 3 nM |  | 9.14 ± 2.5% | 1200 ± 327 ng·h/mL | 15 nM | 16 nM
Nc1ncnc2c1c(-c1ccc(Oc3ccccc3)cc1)nn2[C@@H]1CCN(C2CCN(C3CN(c4ccc5c(c4)C(=O)N(C4CCC(=O)NC4=O)C5=O)C3)CC2)C[C@@H]1F (stereo partly drawn) [Compound 45, 5-(3-((3S,4R)-4-(4-amino-3-(4-phenoxyphenyl)-1H-pyrazolo[3,4-d]pyrimidin-1-yl)-3-fluoro-[1,4′-bipiperidin]-1′-yl)azetidin-1-yl)-2-(2,6-dioxopiperidin-3-yl)isoindoline-1,3-dione] | 1.4 mg/kg | 110 nM | 125 nM | 3 nM |  | 19.7 ± 8.5% | 3440 ± 1490 ng·h/mL | 9.6 nM | 16 nM

Continued, in another order:

ED50 (BTK protein) | IC50 (SU-DHL-4 cells) | IC50 (SU-DHL-6 cells) | IC50 (OCI-LY10 cells) | AUC(0-t) [1] | bioavailability [2] | AUC(0-t) [2] | SMILES | IC50 (Mino cells) | IC50 (TMD-8 cells)
3.8 mg/kg |  |  |  |  |  |  | Nc1ncnc2c1c(-c1ccc(Oc3ccccc3)cc1)nn2C1CCN(C2CCN(C3CN(c4ccc5c(c4)C(=O)N(C4CCC(=O)NC4=O)C5=O)C3)CC2)CC1 (stereo not shown) [Compound 8-1, 5-(3-(4-(4-amino-3-(4-phenoxyphenyl)-1H-pyrazolo[3,4-d]pyrimidin-1-yl)-[1,4′-bipiperidin]-1′-yl)azetidin-1-yl)-2-(2,6-dioxopiperidin-3-yl)isoindoline-1,3-dione] |  | 
1.9 mg/kg | 20 nM | 29 nM | 4 nM | 218 ± 68 ng·h/mL |  |  | Nc1ncnc2c1c(-c1ccc(Oc3ccccc3)cc1)nn2C1CCN(C2CCN(C3CN(c4ccc5c(c4)C(=O)N(C4CCC(=O)NC4=O)C5=O)C3)CC2F)CC1 (stereo not drawn) [Compound 18-1, cis-5-(3-(4-(4-amino-3-(4-phenoxyphenyl)-1H-pyrazolo[3,4-d]pyrimidin-1-yl)-3′-fluoro-[1,4′-bipiperidin]-1′-yl)azetidin-1-yl)-2-(2,6-dioxopiperidin-3-yl)isoindoline-1,3-dione] | 18 nM | 8 nM
